The source of these data is ChEMBL document CHEMBL1201862, “PubChem BioAssay data set” (2004).

By GI50 is commonly meant the concentration at which growth is held to half of that of the control.

Some test systems named below: NCI-H23; EKVX; MCF7; SF-268; CCRF-CEM; LOX IMVI; M14; HCC 2998; SK-MEL-2; SK-MEL-5; RPMI-8226; DU-145; SR; COLO 205; ACHN; OVCAR-8; HT-29; SNB-19; CAKI-1; Malme-3M.
Assay in all cases: DTP human tumour cell line panel, 48 h

SMILES strings stand for the structures.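 Results reflect a 48-hour exposure of cells in 96-well plates to compound at five concentrations. The concentration for 50% growth inhibition is given as GI50.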 Calls of active or inactive are those of the source. No stated cut-off is given here; in the data, active = GI50 up to about 1.1 µM and inactive = higher.

In the case of `O=c1[nH]nc(Cc2ccccc2)n1-n1cnnc1`, the GI50 with NCI-H23, with EKVX, in the assay on MCF7, in the assay with SF-268, in the assay with CCRF-CEM and with LOX IMVI was > 100 µM (inactive) throughout. The GI50 in the assay with M14, in the assay on HCC 2998, in the assay on SK-MEL-2, in the assay on SK-MEL-5, in the assay with RPMI-8226 and with DU-145 was > 100 µM (inactive) each time. Moreover, the GI50 in the assay on SR, with COLO 205, with ACHN, in the assay with OVCAR-8, in the assay with HT-29 and in the assay with SNB-19 was > 100 µM (inactive) in each case.
Consider `O=[N+]([O-])/C=C/c1cc2ccccc2[nH]1`, for which the GI50 in the assay on NCI-H23 was 13.1 µM (inactive); with EKVX it was 29.2 µM (inactive); in the assay with MCF7, 4.03 µM (inactive); in the assay with SF-268 it was 16.9 µM (inactive); with CCRF-CEM it was 2.99 µM (inactive); in the assay with LOX IMVI it was 14.2 µM (inactive). The GI50 in the assay on CAKI-1 is 17.4 µM (inactive); in the assay on M14, 12.5 µM (inactive); in the assay with SK-MEL-2 it was 19.3 µM (inactive); in the assay on SK-MEL-5, 14.7 µM (inactive); in the assay with RPMI-8226 it was 2.96 µM (inactive); in the assay with DU-145, 15.4 µM (inactive). The GI50 was 5.06 µM (inactive) in the assay on SR; 17.2 µM (inactive) in the assay with COLO 205; 17 µM (inactive) with ACHN; 21.6 µM (inactive) in the assay with OVCAR-8; 15.8 µM (inactive) with HT-29; 17.5 µM (inactive) in the assay on SNB-19. Also, the GI50 in the assay on Malme-3M was 27.5 µM (inactive).
For the molecule `O=C(C[C@@H]1CCCN2CCCC[C@H]12)N1c2ccccc2Sc2ccc(Cl)cc21`, the GI50 is 14.7 µM (inactive) in the assay with NCI-H23; 19.1 µM (inactive) in the assay with EKVX; 18.2 µM (inactive) with MCF7; 19.2 µM (inactive) in the assay with SF-268; 15 µM (inactive) in the assay with CCRF-CEM; 13.7 µM (inactive) in the assay on LOX IMVI. Besides, the GI50 was 14.4 µM (inactive) in the assay with CAKI-1; 4.95 µM (inactive) with M14; 11.7 µM (inactive) in the assay with SK-MEL-5; 20.2 µM (inactive) in the assay with RPMI-8226; 14 µM (inactive) in the assay with DU-145; 19.3 µM (inactive) in the assay with SR. Moreover, the GI50 was 11.9 µM (inactive) with COLO 205; 14.2 µM (inactive) in the assay on ACHN; 19.3 µM (inactive) in the assay with OVCAR-8; 10.6 µM (inactive) with HT-29; 16.1 µM (inactive) with SNB-19; 16.2 µM (inactive) in the assay on Malme-3M.
For the molecule `CC(C)(C)c1cc(C2=NN(c3ccccc3)C(c3ccccc3)C2)cc(C(C)(C)C)c1O` (stereo unspecified), the GI50 was > 100 µM (inactive) in the assay with NCI-H23; > 100 µM (inactive) in the assay on EKVX; 93.5 µM (inactive) in the assay on MCF7; > 100 µM (inactive) in the assay with SF-268; 19.1 µM (inactive) in the assay with CCRF-CEM; > 100 µM (inactive) in the assay with LOX IMVI. The GI50 with CAKI-1, with M14, with SK-MEL-2, with SK-MEL-5, with RPMI-8226 and in the assay on DU-145 was > 100 µM (inactive) each time. The GI50 in the assay on SR was 29.3 µM (inactive); with COLO 205 it was 35.7 µM (inactive); in the assay on ACHN, > 100 µM (inactive); with OVCAR-8, > 100 µM (inactive); with HT-29, > 100 µM (inactive); in the assay on SNB-19, > 100 µM (inactive). Further, the GI50 with Malme-3M was > 100 µM (inactive).
Turning to `C[C@]12c3c4cc(NC(=O)C(=O)NCc5ccc(-c6ccccn6)nc5)cc3Oc3cc(NC(=O)C(=O)NCc5ccc(-c6ccccn6)nc5)cc(c31)OC1C=C(NC(=O)C(=O)NCc3ccc(-c5ccccn5)nc3)C=C(O4)C12` (stereo partly specified), the GI50 was 11.5 µM (inactive) in the assay with EKVX; 33.7 µM (inactive) in the assay with MCF7; 16.8 µM (inactive) in the assay with SF-268; 16.6 µM (inactive) in the assay with CCRF-CEM; 17.6 µM (inactive) with LOX IMVI; 21.2 µM (inactive) in the assay on CAKI-1. Further, the GI50 with M14 is 98.2 µM (inactive); in the assay with SK-MEL-2 it was 38.7 µM (inactive); in the assay with SK-MEL-5, 35.3 µM (inactive); in the assay with RPMI-8226 it was 42.1 µM (inactive); in the assay with DU-145, 18.8 µM (inactive); in the assay on SR it was 3.83 µM (inactive). The GI50 in the assay with COLO 205 was 23.1 µM (inactive); in the assay with ACHN it was 14.3 µM (inactive); with OVCAR-8, 21.9 µM (inactive); in the assay on HT-29 it was 12.1 µM (inactive); in the assay with SNB-19, > 100 µM (inactive).
As for `COc1ccc2nc3cccc([N+](=O)[O-])c3c(NCCN(C)C)c2c1`, the GI50 in the assay on NCI-H23 is 0.136 µM (active); in the assay with EKVX, 0.186 µM (active); in the assay with MCF7, 0.0555 µM (active); with SF-268 it was 0.145 µM (active); with CCRF-CEM, 0.16 µM (active); with LOX IMVI it was 0.0325 µM (active). In addition, the GI50 in the assay with CAKI-1 was 0.18 µM (active); with M14 it was 0.0927 µM (active); in the assay on HCC 2998 it was 0.0605 µM (active); in the assay on SK-MEL-2, 0.127 µM (active); with SK-MEL-5, 0.102 µM (active); in the assay on RPMI-8226, 0.0318 µM (active). The GI50 in the assay with DU-145 is 0.0223 µM (active); with COLO 205, 0.0284 µM (active); with ACHN, 0.0585 µM (active); with OVCAR-8, 0.0638 µM (active); in the assay on HT-29, 0.0573 µM (active); in the assay on SNB-19 it was 0.282 µM (active). Also, in the assay with Malme-3M, the GI50 is 0.0877 µM (active).
On to `CCc1cc2c(cc1C(=O)CCC(=O)O)CC1(C2)Cc2cc(CC)c(C(=O)CCC(=O)O)cc2C1`, for which the GI50 was > 100 µM (inactive) with NCI-H23; > 100 µM (inactive) with EKVX; > 100 µM (inactive) with MCF7; 82.4 µM (inactive) in the assay with SF-268; 32.2 µM (inactive) in the assay with CCRF-CEM; > 100 µM (inactive) in the assay with LOX IMVI. The GI50 in the assay on CAKI-1 is > 100 µM (inactive); with M14 it was > 100 µM (inactive); in the assay on HCC 2998 it was > 100 µM (inactive); with SK-MEL-2, 99.8 µM (inactive); with SK-MEL-5, > 100 µM (inactive); in the assay with RPMI-8226 it was 63.1 µM (inactive). Besides, the GI50 in the assay with DU-145, with COLO 205, in the assay on ACHN, in the assay on OVCAR-8, in the assay with HT-29 and with SNB-19 was > 100 µM (inactive) in each case. The GI50 with Malme-3M is 38.5 µM (inactive).
Take `Clc1ccccc1NN(Cc1ccncc1)c1ccccc1Cl`: the GI50 in the assay with NCI-H23 is 15.6 µM (inactive); in the assay on EKVX it was 14 µM (inactive); with MCF7, 22.3 µM (inactive); with SF-268, 18.1 µM (inactive); in the assay on LOX IMVI, 16.7 µM (inactive); in the assay on M14 it was 17.7 µM (inactive). Moreover, the GI50 in the assay with SK-MEL-2 was 14.4 µM (inactive); with SK-MEL-5, 13.9 µM (inactive); with RPMI-8226 it was 10.8 µM (inactive); in the assay on DU-145 it was 17.5 µM (inactive); in the assay on SR, 13.2 µM (inactive); in the assay with COLO 205 it was 14.4 µM (inactive). The GI50 in the assay with ACHN was 16.6 µM (inactive); with OVCAR-8 it was 13.8 µM (inactive); with HT-29 it was 12.6 µM (inactive); in the assay on SNB-19 it was 17.3 µM (inactive); with Malme-3M, 17.7 µM (inactive).
